Source: patent US10597388B2, “Pyridazinone herbicides” (FMC CORPORATION, priority 2014, dated 2020)
Like-named read-outs stand apart in the source and are kept apart here.

Legend:
Assay type in all cases: in vivo
corn (Zea mays) = assay: Test A greenhouse herbicide test, pre- and postemergence; settings: Zea mays, post-emergence, 240 h, Postemergence; for Corn plant response rating (crop injury, 0 = no effect, 100 = complete kill) at 125 g/ha: 125 g ai/ha, visual rating after approx. 10 d, 0 to 100 scale (0 no effect, 100 complete control); for plant injury at 500 g/ha: 500 g ai/ha, 0 to 100 scale, 0 is no effect, 100 is complete control, read-out: Corn plant response rating
Summary of the method: (§1)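 Seeds sown in loam–sand blend got a preemergence directed soil spray of compound in non-phytotoxic solvent with surfactant. Postemergence treatment was given at 2–10 cm, one- to two-leaf stage. After ~10 d in greenhouse, injury was rated visually vs untreated controls, 0 (no effect) to 100 (complete control).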

[1] = tested on: foxtail, giant (giant foxtail, Setaria faberii); assay: as above; settings: Setaria faberi, 240 h; for pest or weed control at 125 g/ha: 125 g ai/ha; for pest or weed control at 500 g/ha: 500 g ai/ha, 0 to 100 scale
Summary of the method: as §1

kochia (Kochia scoparia) = assay: as above; settings: Bassia scoparia, 240 h; for pest or weed control at 125 g/ha: 125 g ai/ha; for pest or weed control at 500 g/ha: 500 g ai/ha, 0 to 100 scale
Summary of the method: as §1

[2] = tested on: pigweed (Amaranthus retroflexus); assay: as above; settings: Amaranthus retroflexus, 240 h; for pest or weed control at 125 g/ha: 125 g ai/ha; for pest or weed control at 500 g/ha: 500 g ai/ha, 0 to 100 scale
Summary of the method: as §1

[3] = tested on: ragweed (common ragweed, Ambrosia elatior); assay: as above; settings: Ambrosia artemisiifolia, 240 h; for pest or weed control at 125 g/ha: 125 g ai/ha; for pest or weed control at 500 g/ha: 500 g ai/ha, 0 to 100 scale
Summary of the method: as §1

[4] = tested on: ryegrass, Italian (Italian ryegrass, Lolium multiflorum); assay: as above; settings: Lolium multiflorum, 240 h; for pest or weed control at 125 g/ha: 125 g ai/ha; for pest or weed control at 500 g/ha: 500 g ai/ha, 0 to 100 scale
Summary of the method: as §1

[5] = tested on: wheat (Triticum aestivum); assay: as above; settings: Triticum aestivum, post-emergence, 240 h, Postemergence; for plant injury at 125 g/ha: 125 g ai/ha, visual rating after approx. 10 d, 0 to 100 scale (0 no effect, 100 complete control), read-out: Plant response rating, Wheat; for plant injury at 500 g/ha: 500 g ai/ha, 0 to 100 scale, 0 is no effect, 100 is complete control, read-out: Wheat plant response rating
Summary of the method: as §1

[6] = tested on: galium (catchweed bedstraw, Galium aparine); assay: Test C greenhouse herbicide test, pre- and postemergence
Summary of the method: (§2)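 Preemergence: seeds sown in a loam soil–sand blend and sprayed with test chemicals in a non-phytotoxic solvent mixture containing surfactant. Postemergence: plants grown in peat-based medium and treated at 2 to 18 cm (1- to 4-leaf stage). After 13 to 15 d in a greenhouse, injury was visually rated 0–100 against controls.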

[7] = tested on: oilseed rape (Brassica napus); assay: as above
Summary of the method: as §2

[8] = tested on: velvetleaf (Abutilon theophrasti); assay: as above
Summary of the method: as §2

[9] = post-emergence, Postemergence, visual rating after approx. 10 d, 0 to 100 scale (0 no effect, 100 complete control), read-out: Plant response rating, Foxtail, Giant
[10] = post-emergence, Postemergence, 0 is no effect, 100 is complete control, read-out: Foxtail, Giant plant response rating
[11] = pre-emergence, Preemergence, 0 to 100 scale where 0 is no effect and 100 is complete control, read-out: Foxtail, Giant plant response rating
[12] = pre-emergence, Preemergence, 0 no effect, 100 complete control, read-out: Plant response rating, Foxtail, Giant
[13] = post-emergence, Postemergence, visual rating after approx. 10 d, 0 to 100 scale (0 no effect, 100 complete control), read-out: Plant response rating, Kochia
[14] = post-emergence, Postemergence, 0 is no effect, 100 is complete control, read-out: Kochia plant response rating
[15] = pre-emergence, Preemergence, 0 to 100 scale where 0 is no effect and 100 is complete control, read-out: Kochia plant response rating
[16] = pre-emergence, Preemergence, 0 no effect, 100 complete control, read-out: Plant response rating, Kochia
[17] = post-emergence, Postemergence, visual rating after approx. 10 d, 0 to 100 scale (0 no effect, 100 complete control), read-out: Plant response rating, Pigweed
[18] = post-emergence, Postemergence, 0 is no effect, 100 is complete control, read-out: Pigweed plant response rating
[19] = pre-emergence, Preemergence, 0 to 100 scale where 0 is no effect and 100 is complete control, read-out: Pigweed plant response rating
[20] = pre-emergence, Preemergence, 0 no effect, 100 complete control, read-out: Plant response rating, Pigweed
[21] = post-emergence, Postemergence, visual rating after approx. 10 d, 0 to 100 scale (0 no effect, 100 complete control), read-out: Plant response rating, Ragweed
[22] = post-emergence, Postemergence, 0 is no effect, 100 is complete control, read-out: Ragweed plant response rating
[23] = pre-emergence, Preemergence, 0 to 100 scale where 0 is no effect and 100 is complete control, read-out: Ragweed plant response rating
[24] = pre-emergence, Preemergence, 0 no effect, 100 complete control, read-out: Plant response rating, Ragweed
[25] = post-emergence, Postemergence, visual rating after approx. 10 d, 0 to 100 scale (0 no effect, 100 complete control), read-out: Plant response rating, Ryegrass, Italian
[26] = post-emergence, Postemergence, 0 is no effect, 100 is complete control, read-out: Ryegrass, Italian plant response rating
[27] = pre-emergence, Preemergence, 0 to 100 scale where 0 is no effect and 100 is complete control, read-out: Ryegrass, Italian plant response rating
[28] = Postemergence, 31 g ai/ha, 0 to 100 scale (0 no effect, 100 complete control)
[29] = Postemergence, 125 g ai/ha, scale 0 to 100, 0 is no effect, 100 is complete control
[30] = Postemergence, 250 g ai/ha, scale 0 to 100, 0 no effect, 100 complete control, 13 to 15 d
[31] = postemergence, 62 g ai/ha, scale 0 to 100, 0 no effect, 100 complete control

CC(=O)Oc1c(C)nn(C)c(=O)c1-c1c(C)oc2ccc(C)cc12 [Compound 14, 5-(acetyloxy)-4-(2,5-dimethyl-3-benzofuranyl)-2,6-dimethyl-3(2H)-pyridazinone]
Corn plant response rating (crop injury, 0 = no effect, 100 = complete kill) at 125 g/ha (corn (Zea mays)): 0%
plant injury at 500 g/ha (corn (Zea mays)): 20%
pest or weed control at 125 g/ha [1, 9]: 10%
pest or weed control at 500 g/ha [1, 10]: 70%
pest or weed control at 125 g/ha [1, 11]: 0%
pest or weed control at 500 g/ha [1, 12]: 10%
pest or weed control at 125 g/ha (kochia (Kochia scoparia); [13]): 80%
pest or weed control at 500 g/ha (kochia (Kochia scoparia); [14]): 90%
pest or weed control at 125 g/ha (kochia (Kochia scoparia); [15]): 10%
pest or weed control at 500 g/ha (kochia (Kochia scoparia); [16]): 50%
pest or weed control at 125 g/ha [2, 17]: 60%
pest or weed control at 500 g/ha [2, 18]: 80%
pest or weed control at 125 g/ha [2, 19]: 70%
pest or weed control at 500 g/ha [2, 20]: 90%
pest or weed control at 125 g/ha [3, 21]: 70%
pest or weed control at 500 g/ha [3, 22]: 90%
pest or weed control at 125 g/ha [3, 23]: 0%
pest or weed control at 500 g/ha [3, 24]: 30%
pest or weed control at 125 g/ha [4, 25]: 60%
pest or weed control at 500 g/ha [4, 26]: 80%
pest or weed control at 125 g/ha [4, 27]: 30%
plant injury at 125 g/ha [5]: 0%
plant injury at 500 g/ha [5]: 0%
Galium plant response rating [6, 28]: 50
Plant response rating, Galium [6, 29]: 80
Plant response rating, Galium [6, 30]: 90
Galium plant response rating [6, 31]: 55
Oilseed Rape plant response rating [7, 28]: 0
Plant response rating, Oilseed Rape [7, 29]: 0
Plant response rating, Oilseed Rape [7, 30]: 0
Oilseed Rape plant response rating [7, 31]: 0
Velvetleaf plant response rating [8, 28]: 10
Plant response rating, Velvetleaf [8, 29]: 40
Plant response rating, Velvetleaf [8, 30]: 40
Velvetleaf plant response rating [8, 31]: 20

CC(=O)Oc1c(C)nn(C)c(=O)c1-c1c(C)oc2c(C)cc(C)cc12 [Compound 16, 5-(acetyloxy)-2,6-dimethyl-4-(2,5,7-trimethyl-3-benzofuranyl)-3(2H)-pyridazinone]
Corn plant response rating (crop injury, 0 = no effect, 100 = complete kill) at 125 g/ha (corn (Zea mays)): 0%
plant injury at 500 g/ha (corn (Zea mays)): 0%
pest or weed control at 125 g/ha [1, 9]: 20%
pest or weed control at 500 g/ha [1, 10]: 80%
pest or weed control at 125 g/ha [1, 11]: 0%
pest or weed control at 500 g/ha [1, 12]: 30%
pest or weed control at 125 g/ha (kochia (Kochia scoparia); [13]): 50%
pest or weed control at 500 g/ha (kochia (Kochia scoparia); [14]): 60%
pest or weed control at 125 g/ha (kochia (Kochia scoparia); [15]): 0%
pest or weed control at 500 g/ha (kochia (Kochia scoparia); [16]): 30%
pest or weed control at 125 g/ha [2, 17]: 30%
pest or weed control at 500 g/ha [2, 18]: 40%
pest or weed control at 125 g/ha [2, 19]: 0%
pest or weed control at 500 g/ha [2, 20]: 70%
pest or weed control at 125 g/ha [3, 21]: 30%
pest or weed control at 500 g/ha [3, 22]: 70%
pest or weed control at 125 g/ha [3, 23]: 0%
pest or weed control at 500 g/ha [3, 24]: 0%
pest or weed control at 125 g/ha [4, 25]: 50%
pest or weed control at 500 g/ha [4, 26]: 80%
pest or weed control at 125 g/ha [4, 27]: 30%
pest or weed control at 500 g/ha ([4]; pre-emergence, Preemergence, 0 no effect, 100 complete control, read-out: Plant response rating, Ryegrass, Italian): 80%
plant injury at 125 g/ha [5]: 0%
plant injury at 500 g/ha [5]: 0%
Galium plant response rating [6, 28]: 60
Plant response rating, Galium [6, 29]: 85
Plant response rating, Galium [6, 30]: 80
Galium plant response rating [6, 31]: 80
Oilseed Rape plant response rating [7, 28]: 0
Plant response rating, Oilseed Rape [7, 29]: 10
Plant response rating, Oilseed Rape [7, 30]: 0
Oilseed Rape plant response rating [7, 31]: 0
Velvetleaf plant response rating [8, 28]: 5
Plant response rating, Velvetleaf [8, 29]: 20
Plant response rating, Velvetleaf [8, 30]: 35
Velvetleaf plant response rating [8, 31]: 5
